# System: FIMMI (Fimbristylis miliacea (L.) Vahl, globe fringerush)
# Test: In-water applied herbicidal mixtures, transplanted paddy rice, greenhouse (Example II)
# Assay type: in vivo
# Settings: Compound A Benzyl Ester 8 gae/ha
structure (smiles),measurement,value
"COc1c(Cl)ccc(-c2nc(C(=O)OCc3ccccc3)c(Cl)c(N)c2F)c1F [Compound A Benzyl Ester, benzyl ester of 4-amino-3-chloro-5-fluoro-6-(4-chloro-2-fluoro-3-methoxy-phenyl)pyridine-2-carboxylic acid]",Visual Weed Control (%) - 21 DAA FIMMI Obs,30%
